Laboratory results as given in patent US20240252510A1, “COMPOSITION CONTAINING HOMOHARRINGTONINE AS ACTIVE INGREDIENT FOR PREVENTING OR TREATING MUSCLE DISEASES” (RESEARCH COOPERATION FOUNDATION OF YEUNGNAM UNIVERSITY, priority 2021, published 2024).
“Also recorded” adds a separate entry of the source.

Tests used:
[1] = tested on: animal model with lower limb fixation-induced muscular atrophy; assay: Animal model with lower limb fixation-induced muscular atrophy: body weight, dietary intake, muscle weights; type: in vivo, C57BL/6 male mice; details: lower limb fixation mice; 0.545 μg/g i.p. three times a week for 4 weeks; vs phosphate-buffered saline group
Method: 8-week-old C57BL/6 male mice were adapted to the breeding environment for 1 week and then treated with homoharringtonine for 1 week, and the left lower limb was fixed using a stapler and maintained for 3 weeks. The animal model with lower limb fixation-induced muscular atrophy is an animal model for inducing muscular atrophy by reducing a load of body weight, and induction was conducted using a skin stapler (Manipler AZ, Utsunomiya, Tochigi, Japan) according to a method of Caron et al. (A novel hindlimb immobilization procedure for studying skeletal muscular atrophy and recovery in mouse. J Appl Physiol. 2009 June; 106(6):2049-59.). The unfixed right side was used as a control group.
For a total of 4 weeks from 1 week before fixation to 3 weeks of fixation, phosphate-buffered saline was administered to the control group and homoharringtonine (0.545 μg/g body weight) was administered to the experimental group three times a week intraperitoneally.

old mice = assay: Old mouse model: body weight, dietary intake, gastrocnemius weight; type: in vivo, 18-month-old C57BL/6 mice
Method: An 18-month-old C57BL/6 was purchased, and maintained in the same breeding environment as above the high-fat diet-induced animal model, and fed with a normal chow diet during the experiment. After adapting the old mice to the breeding environment for 1 week, they were randomly divided into a control group and an experimental group, and phosphate-buffered saline was administered to the control group and homoharringtonine (0.545 μg/g body weight) was administered to the experimental group intraperitoneally three times a week for more than 4 months.

COC(=O)C[C@](O)(CCCC(C)(C)O)C(=O)O[C@@H]1C(OC)=C[C@]23CCCN2CCc2cc4c(cc2[C@H]13)OCO4 [homoharringtonine]
body weight [1]: no statistically significant difference
body weight (old mice; 0.545 μg/g i.p. three times a week, vs phosphate-buffered saline group): did not show a significant difference; also recorded: no statistically significant difference
body weight after 6 months of administration (old mice; another experimental group, 6 months of injection, vs control group): no significant difference
